From the CheMixHub ionic liquid set

Experiment: xn = mol fraction of the nth substance listed

CCCC(=O)O + CC(CC(C)(C)C)CP(=O)([O-])CC(C)CC(C)(C)C.CCCCCCCCCCCCCC[P+](CCCCCC)(CCCCCC)CCCCCC
Conditions | viscosity [mPa·s]
298 K, 100 kPa, x2 = 0.9022 | 950

CCCC(=O)O + CC(CC(C)(C)C)CP(=O)([O-])CC(C)CC(C)(C)C.CCCCCCCCCCCCCC[P+](CCCCCC)(CCCCCC)CCCCCC + O
100 kPa
Conditions | viscosity [mPa·s]
298 K, x2 = 0.09014, x1 = 0.601 | 53
298 K, x2 = 0.09759, x1 = 0.6041 | 54
298 K, x2 = 0.1129, x1 = 0.5867 | 83
310 K, x2 = 0.08641, x1 = 0.594 | 30
310 K, x2 = 0.1138, x1 = 0.593 | 47
310 K, x2 = 0.1346, x1 = 0.5734 | 58
310 K, x2 = 0.1366, x1 = 0.07313 | 82
310 K, x2 = 0.1673, x1 = 0.1732 | 84
310 K, x2 = 0.1882, x1 = 0.4901 | 87
310 K, x2 = 0.1908, x1 = 0.2923 | 90
310 K, x2 = 0.1962, x1 = 0.4196 | 91
318 K, x2 = 0.08808, x1 = 0.5881 | 24
318 K, x2 = 0.1141, x1 = 0.5826 | 35
318 K, x2 = 0.1336, x1 = 0.5507 | 44

C[N+](C)(C)CCO.O=S(=O)([N-]S(=O)(=O)C(F)(F)F)C(F)(F)F + CC(O)CO
101 kPa
Conditions | viscosity [mPa·s]
313.15 K, x2 = 0 | 56.4
313.15 K, x2 = 0.4786 | 28.6
318.15 K, x2 = 0.4786 | 23.6
328.15 K, x2 = 0.5867 | 15.4
333.15 K, x2 = 0 | 28.6
338.15 K, x2 = 0 | 24.6
343.15 K, x2 = 0.2189 | 14.68
343.15 K, x2 = 0.3834 | 12.15
343.15 K, x2 = 0.8744 | 6.61
348.15 K, x2 = 0 | 19.1

CCCCCCCCCCCCCC[P+](CCCC)(CCCC)CCCC.CCCCCCCCCCCCc1ccccc1S(=O)(=O)[O-] + CCCCCCCCCCCC
101 kPa
Conditions | viscosity [mPa·s]
298.15 K, x1 = 0.4402 | 456
303.15 K, x1 = 0.4402 | 325
308.15 K, x1 = 0.4844 | 319
313.15 K, x1 = 0.354 | 127
313.15 K, x1 = 0.4402 | 180
313.15 K, x1 = 0.4844 | 236
318.15 K, x1 = 0.6789 | 596
328.15 K, x1 = 0.354 | 59.1
328.15 K, x1 = 0.6789 | 316
338.15 K, x1 = 0.354 | 39.1
338.15 K, x1 = 0.4844 | 65.1
343.15 K, x1 = 0.6789 | 133
353.15 K, x1 = 0.6789 | 86.1

CCCCCCCCCCCCOS(=O)(=O)[O-].[Na+] + CCCCCCCCCCCCCCCC[N+](C)(C)C.[Br-] + O
298.15 K, 101 kPa, frequency 0.001 MHz
Conditions | electrical conductivity [S/m]
x1 = 3e-08, x2 = 0 | 0.000305
x1 = 1.029e-05, x2 = 0 | 0.00434
x1 = 2.57e-05, x2 = 0 | 0.0104
x1 = 3.699e-05, x2 = 0 | 0.0155
x1 = 5.034e-05, x2 = 0 | 0.0213
x1 = 6.37e-05, x2 = 0 | 0.0264
x1 = 7.295e-05, x2 = 0 | 0.0301
x1 = 8.321e-05, x2 = 0 | 0.0349
x1 = 9.348e-05, x2 = 0 | 0.0392
x1 = 0.0001038, x2 = 0 | 0.0422
x1 = 0.000113, x2 = 0 | 0.0461
x1 = 0.0001212, x2 = 0 | 0.051
x1 = 0.0001315, x2 = 0 | 0.054
x1 = 0.0001418, x2 = 0 | 0.0567
x1 = 0.00015, x2 = 0 | 0.0607
x1 = 0.0001582, x2 = 0 | 0.0631
x1 = 0.0001665, x2 = 0 | 0.0649
x1 = 0.0001737, x2 = 0 | 0.0661
x1 = 0.000183, x2 = 0 | 0.0673
x1 = 0.0001944, x2 = 0 | 0.0683
x1 = 0.0002036, x2 = 0 | 0.0701
x1 = 0.000214, x2 = 0 | 0.0713
x1 = 0.0002222, x2 = 0 | 0.0737
x1 = 0.0002315, x2 = 0 | 0.075
x1 = 0.0002408, x2 = 0 | 0.0771
x1 = 0.0002521, x2 = 0 | 0.0792
x1 = 0.0002625, x2 = 0 | 0.0801
x1 = 0.0002738, x2 = 0 | 0.0823
x1 = 0.0002862, x2 = 0 | 0.0841

CCCCCCCCCCCC[N+](C)(C)C.[Br-] + CCCCCCCCCCCCCCCC[n+]1ccn(C)c1.[Cl-] + O
100 kPa, frequency 0.002 MHz
Conditions | electrical conductivity [S/m]
303.15 K, x2 = 0, x1 = 0.0001836 | 0.105
313.15 K, x2 = 0, x1 = 0.0003475 | 0.207
323.15 K, x2 = 0, x1 = 0.0001544 | 0.129

CCCCCCCCCC(=O)O + CCCCCCCCCCCCCC[P+](CCCCCC)(CCCCCC)CCCCCC.[Cl-]
100 kPa, x2 = 0.3333
Conditions | viscosity [mPa·s]
293 K | 350
298 K | 260
318 K | 94
328 K | 63
333 K | 53
